According to PubChem BioAssay AID1845216 (Molecular Pharmacology Branch, DTP, NCI, 2023):

Tested on: SW 982 tumor spheroid viability
Assay: Anticancer human tumor SW 982 cell line growth inhibition;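 further: spheroids exposed to compound for 7 days before readout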
Details: spheroids with HUVEC and MSC; for IC50: curve of first compound; for viability, T/C: stronger effect = lower value
In short: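 Complex tumor spheroids combined malignant cells with endothelial cells and mesenchymal stem cells. DNA-damaging drugs and DNA repair inhibitors were tested alone and in combination, at half-log dilutions down from clinical Cmax (top 10 microM if Cmax unknown), 0.25% DMSO final.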

[1] = second compound 1 µM, first compound 0.00949 µM
[2] = second compound 1 µM, first compound 0.03 µM
[3] = second compound 1 µM, first compound 0.0949 µM
[4] = second compound 1 µM, first compound 0.3 µM
[5] = second compound 1 µM, first compound 0.949 µM
[6] = second compound 1 µM, first compound 3 µM
[7] = second compound 3.16 µM, first compound 0.00949 µM
[8] = second compound 3.16 µM, first compound 0.03 µM
[9] = second compound 3.16 µM, first compound 0.0949 µM
[10] = second compound 3.16 µM, first compound 0.3 µM
[11] = second compound 3.16 µM, first compound 0.949 µM
[12] = second compound 3.16 µM, first compound 3 µM
[13] = second compound 10 µM, first compound 0.00949 µM
[14] = second compound 10 µM, first compound 0.03 µM
[15] = second compound 10 µM, first compound 0.0949 µM
[16] = second compound 10 µM, first compound 0.3 µM
[17] = second compound 10 µM, first compound 0.949 µM
[18] = second compound 10 µM, first compound 3 µM
[19] = second compound 31.6 µM, first compound 0.00949 µM
[20] = second compound 31.6 µM, first compound 0.03 µM
[21] = second compound 31.6 µM, first compound 0.0949 µM
[22] = second compound 31.6 µM, first compound 0.3 µM
[23] = second compound 31.6 µM, first compound 0.949 µM
[24] = second compound 31.6 µM, first compound 3 µM
[25] = second compound 100 µM, first compound 0.00949 µM
[26] = second compound 100 µM, first compound 0.03 µM
[27] = second compound 100 µM, first compound 0.0949 µM
[28] = second compound 100 µM, first compound 0.3 µM
[29] = second compound 100 µM, first compound 0.949 µM
[30] = second compound 100 µM, first compound 3 µM

## CNCc1ccc(-c2cc(-c3nc(-c4ccc(S(=O)(=O)C(C)C)cc4)cnc3N)on2)cc1 + Cn1nnc2c(C(N)=O)ncn2c1=O
Second compound 1 µM
  IC50: 219 nM
Second compound 3.16 µM
  IC50: 228 nM
Second compound 10 µM
  IC50: 160 nM
Second compound 31.6 µM
  IC50: 109 nM
Second compound 100 µM
  IC50: 53.4 nM
[1]
  viability, T/C: 95.6%
[2]
  viability, T/C: 89.3%
[3]
  viability, T/C: 75.1%
[4]
  viability, T/C: 38%
[5]
  viability, T/C: 28.6%
[6]
  viability, T/C: 14.7%
[7]
  viability, T/C: 92.9%
[8]
  viability, T/C: 87.2%
[9]
  viability, T/C: 68.8%
[10]
  viability, T/C: 39.5%
[11]
  viability, T/C: 29.8%
[12]
  viability, T/C: 9.23%
[13]
  viability, T/C: 72.7%
[14]
  viability, T/C: 71.9%
[15]
  viability, T/C: 60%
[16]
  viability, T/C: 35.3%
[17]
  viability, T/C: 26.7%
[18]
  viability, T/C: 8.84%
[19]
  viability, T/C: 69%
[20]
  viability, T/C: 67.7%
[21]
  viability, T/C: 51.6%
[22]
  viability, T/C: 31.7%
[23]
  viability, T/C: 23.1%
[24]
  viability, T/C: 8.96%
[25]
  viability, T/C: 63.5%
[26]
  viability, T/C: 58.8%
[27]
  viability, T/C: 43.5%
[28]
  viability, T/C: 28.1%
[29]
  viability, T/C: 22.7%
[30]
  viability, T/C: 5.36%

## Cc1sc2c(c1C)C(c1ccc(Cl)cc1)=NC(CC(=O)Nc1ccc(O)cc1)c1nnc(C)n1-2 (stereo not given) + Cn1nnc2c(C(N)=O)ncn2c1=O
Second compound 1 µM
  IC50: 294 nM
Second compound 3.16 µM
  IC50: 240 nM
Second compound 10 µM
  IC50: 158 nM
Second compound 31.6 µM
  IC50: 106 nM
Second compound 100 µM
  IC50: 92.2 nM
[1]
  viability, T/C: 113%
[2]
  viability, T/C: 101%
[3]
  viability, T/C: 78.2%
[4]
  viability, T/C: 47.6%
[5]
  viability, T/C: 35%
[6]
  viability, T/C: 25%
[7]
  viability, T/C: 103%
[8]
  viability, T/C: 104%
[9]
  viability, T/C: 76.6%
[10]
  viability, T/C: 43.8%
[11]
  viability, T/C: 27.7%
[12]
  viability, T/C: 21.4%
[13]
  viability, T/C: 87.8%
[14]
  viability, T/C: 81%
[15]
  viability, T/C: 60.8%
[16]
  viability, T/C: 36.4%
[17]
  viability, T/C: 21.6%
[18]
  viability, T/C: 17.8%
[19]
  viability, T/C: 76.2%
[20]
  viability, T/C: 67.6%
[21]
  viability, T/C: 53.9%
[22]
  viability, T/C: 27.8%
[23]
  viability, T/C: 19.7%
[24]
  viability, T/C: 14.7%
[25]
  viability, T/C: 67.7%
[26]
  viability, T/C: 66.4%
[27]
  viability, T/C: 49.6%
[28]
  viability, T/C: 21.2%
[29]
  viability, T/C: 16.1%
[30]
  viability, T/C: 20.6%

## Cn1ncnc1[C@H]1c2n[nH]c(=O)c3cc(F)cc(c23)N[C@@H]1c1ccc(F)cc1 + Cn1nnc2c(C(N)=O)ncn2c1=O
Second compound 1 µM
  IC50: > 3000 nM
Second compound 3.16 µM
  IC50: > 3000 nM
Second compound 10 µM
  IC50: > 3000 nM
Second compound 31.6 µM
  IC50: 1080 nM
Second compound 100 µM
  IC50: < 9.49 nM
[1]
  viability, T/C: 90.9%
[2]
  viability, T/C: 88.5%
[3]
  viability, T/C: 86.6%
[4]
  viability, T/C: 89.2%
[5]
  viability, T/C: 79%
[6]
  viability, T/C: 69.9%
[7]
  viability, T/C: 89.8%
[8]
  viability, T/C: 62.1%
[9]
  viability, T/C: 79.3%
[10]
  viability, T/C: 73%
[11]
  viability, T/C: 77.3%
[12]
  viability, T/C: 59.9%
[13]
  viability, T/C: 70.4%
[14]
  viability, T/C: 69.5%
[15]
  viability, T/C: 60%
[16]
  viability, T/C: 64.3%
[17]
  viability, T/C: 60%
[18]
  viability, T/C: 50.3%
[19]
  viability, T/C: 56%
[20]
  viability, T/C: 55.7%
[21]
  viability, T/C: 53%
[22]
  viability, T/C: 55.5%
[23]
  viability, T/C: 50.1%
[24]
  viability, T/C: 43.9%
[25]
  viability, T/C: 44.5%
[26]
  viability, T/C: 44.9%
[27]
  viability, T/C: 48.1%
[28]
  viability, T/C: 44%
[29]
  viability, T/C: 39.8%
[30]
  viability, T/C: 39.7%

## O=C(c1cc(Cc2n[nH]c(=O)c3ccccc23)ccc1F)N1CCN(C(=O)C2CC2)CC1 + Cn1nnc2c(C(N)=O)ncn2c1=O
Second compound 1 µM
  IC50: 21400 nM
Second compound 3.16 µM
  IC50: 21800 nM
Second compound 10 µM
  IC50: 16300 nM
Second compound 31.6 µM
  IC50: 4550 nM
Second compound 100 µM
  IC50: 863 nM
[3]
  viability, T/C: 93.2%
[4]
  viability, T/C: 95%
[5]
  viability, T/C: 96.9%
[6]
  viability, T/C: 78.3%
Second compound 1 µM, first compound 9.49 µM
  viability, T/C: 66.5%
Second compound 1 µM, first compound 30 µM
  viability, T/C: 43.5%
[9]
  viability, T/C: 93.7%
[10]
  viability, T/C: 93.8%
[11]
  viability, T/C: 81.3%
[12]
  viability, T/C: 73.6%
Second compound 3.16 µM, first compound 9.49 µM
  viability, T/C: 59.7%
Second compound 3.16 µM, first compound 30 µM
  viability, T/C: 46.4%
[15]
  viability, T/C: 75.7%
[16]
  viability, T/C: 70.7%
[17]
  viability, T/C: 68%
[18]
  viability, T/C: 67.6%
Second compound 10 µM, first compound 9.49 µM
  viability, T/C: 57.3%
Second compound 10 µM, first compound 30 µM
  viability, T/C: 41.7%
[21]
  viability, T/C: 66.6%
[22]
  viability, T/C: 64.5%
[23]
  viability, T/C: 54.3%
[24]
  viability, T/C: 55.7%
Second compound 31.6 µM, first compound 9.49 µM
  viability, T/C: 45.2%
Second compound 31.6 µM, first compound 30 µM
  viability, T/C: 36%
[27]
  viability, T/C: 49.6%
[28]
  viability, T/C: 54%
[29]
  viability, T/C: 50.7%
[30]
  viability, T/C: 41.6%
Second compound 100 µM, first compound 9.49 µM
  viability, T/C: 38.3%
Second compound 100 µM, first compound 30 µM
  viability, T/C: 33.2%
